{"source": "patent US8080517B2", "about": "“Cell-permeable peptide inhibitors of the JNK signal transduction pathway” (Xigen SA, priority 2005, dated 2011)", "key": {"[1]": {"test": "Noise trauma, hearing threshold shifts by auditory brainstem response", "format": "in vivo, guinea pigs", "experimental": "D-TAT-IB1(s) was applied onto the round window membrane of the cochlea of 3 groups of guinea pigs (each group with 6 animals) in 2 microliters of a gel formulation of 2.6% buffered hyaluronic acid (Hylumed, Genzyme Corp.) at a concentration of 100 µM either 30 minutes before noise trauma (120 dB at 6 kHz during 30 minutes) or 30 minutes or 4 hours thereafter. Untreated ears served as control. Hearing threshold shifts were evaluated by auditory brainstem response measurements 20 minutes after noise trauma (temporary threshold shift, TTS) and 15 days following the trauma (permanent threshold shift, PTS). […] Thus, D-TAT-IB1 (s) is a very effective otoprotective compound in case of noise trauma."}, "[2]": {"test_system": "WiDr cells", "test": "Irradiation (30 Gy) induced apoptosis", "format": "cell-based, human", "details": "1 μM added 30 minutes before 30 Gy, analyzed 48 hours later", "experimental": "JNK is also activated by ionizing radiation. To determine whether inventive TAT-IB(s) peptides would provide protection against radiation-induced JNK damage, “WiDr” cells were irradiated (30 Gy) in presence or absence of D-TAT, inventive L-TAT-IB1(s) or inventive D-TAT-IB1(s) peptides (1 μM added 30 minutes before irradiation). Control cells (CTRL) were not irradiated. Cells were analyzed 48 hours later by means of PI and Hoechst 3342 staining, as described above. N=3, SEM are indicated."}, "[3]": {"test_system": "cortical neuronal culture", "test": "LDH release from cortical neuronal cultures following NMDA stimulation", "format": "cell-based, rat", "details": "5 μM pre-treatment 30 min, 100 μM NMDA, 12 h", "experimental": "The neuroprotective effect of the D-TAT-IB (generic)(s)/D-JNKI1 peptide (SEQ ID NO: 12) was evaluated in sister cultures pre-treated for 30 min with the indicated concentrations of peptides or MK-801 before continuous exposure to 100 μM NMDA.\nCortical neuronal culture. We dissected small pieces of cortex from the brains of two day old rat pups, incubated them with 200 units of papain for 30 min at 34° C., and then plated the neurons at densities of approximately 1×10^6 cells/plate on dishes pre-coated with 100 μg/ml poly-D-lysine. The plating medium consisted of B27/Neurobasal (Life Technologies, Gaithersburg, Md.) supplemented with 0.5 mM glutamine, 100 U/ml penicillin and 100 ug/ml streptomycin.\nLactate dehydrogenate (LDH) cytotoxicity assay. LDH released into the bathing medium 12, 24 and 48 h after NMDA administration was measured using the Cytotox 96 non-radioactive cytotoxicity assay kit (Promega, Wis.) (see FIG. 5)."}, "[4]": {"test_system": "βTC-3 cells", "test": "IL-1β induced pancreatic β-cell death, peptide treatment, propidium iodide / Hoechst 33342 staining", "format": "cell-based", "details": "one single addition 1 μM, IL-1β 10 ng/ml every two days, 15 days", "experimental": "We investigated the effects of the inventive L-TAT-IB(s) peptides on the promotion of β-cell apoptosis elicited by IL-1. βTC-3 cell cultures were incubated for 30 minutes with 1 μM of inventive L-TAT-IB1(s) peptides followed by 10 ng/mL of IL-1. A second addition of peptide (1 μM) was performed 24 hours later. Apoptotic cells were counted after two days of incubation with IL-1 β using propidium iodide (red stained cell are dead cells) and Hoechst 33342 (blue stained cell are cells with intact plasma membrane) nuclear staining.\nLong term inhibition of IL-1 induced cells death was examined by treating βTC-3 cells as described above, except that incubation of the cells with the peptides and IL-1 β was sustained for 12 days. Additional peptides (1 μM) were added each day and additional IL-1 β (10 ng/mL) was added every 2 days. […] Taken together, these experiments provide evidence that inventive TAT-IB(s) peptides are biologically active molecules able to prevent the effects of JNK signaling on cell fate.\nInhibition of IL-1 β induced pancreatic β-cell death by the inventive D-TAT-IB1(s) peptide was analyzed. βTC-3 cells were incubated as described above for 30 minutes with one single addition of the indicated peptides (1, μM), then IL-1 (10 ng/ml) was added.\nApoptotic cells were then counted after two days of incubation with IL-1 β by use of Propidium Iodide and Hoechst 33342 nuclear staining. A minimum of 1,000 cells were counted for each experiment. Standard Error of the Means (SEM) are indicated, n=5.\nLong term inhibition of IL-1P induced cell-death by the D-TAT-IB1 peptide was also analyzed. βTC-3 cells were incubated as above for 30 minutes with one single addition of the indicated peptides (1 μM), then IL-1 β (10 ng/ml) was added, followed by addition of the cytokine every two days. Apoptotic cells were then counted after 15 days of incubation with IL-1 by use of propidium iodide and Hoechst 33342 nuclear staining. […] A minimum of 1.000 cells were counted for each experiment."}, "[5]": {"test_system": "recombinant JNK1, JNK2, or JNK3 kinases", "test": "Solid phase kinase assay, phosphorylation of c-Jun, ATF2 and Elk1 by recombinant JNKs", "format": "biochemical", "details": "GST-Jun (aa 1-73), 0-250 μM dosage study", "experimental": "The effects of the peptides on JNKs-mediated phosphorylation of their target transcription factors were investigated in vitro. Recombinant and non activated JNK1, JNK2 and JNK3 were produced using a TRANSCRIPTION AND TRANSLATION rabbit reticulocyte lysate kit (Promega) and used in solid phase kinase assays with c-Jun, ATF2 and Elk1, either alone or fused to glutathione-S-transferase (GST), as substrates. Dose response studies were performed wherein inventive L-TAT or L-TAT-IB1(s) peptides (0-25 μM) were mixed with the recombinant JNK1, JNK2, or JNK3 kinases in reaction buffer (20 mM Tris-acetate, 1 mM EGTA, 10 mM p-nitrophenyl-phosphate (pNPP), 5 mM sodium pyrophosphate, 10 mM p-glycerophosphate, 1 mM dithiothreitol) for 20 minutes. The kinase reactions were then initiated by the addition of 10 mM MgCl2 and 5 pCi […] and 1 μg of either GST-Jun (aa 1-89), GST-AFT2 (aa 1-96) or GST-ELK1 (aa 307-428). GST-fusion proteins were purchased from Stratagene (La Jolla, Calif.).\nTen μL of glutathione-agarose beads were also added to the mixture. Reaction products were then separated by SDS-PAGE on a denaturing 10% polyacrylamide gel. Gels were dried and subsequently exposed to X-ray films (Kodak). […] The ability of D-TAT, inventive D-TAT-IB1(s) and inventive L-TAT-IB1(s) peptides (0-250 μM dosage study) to inhibit GST-Jun (aa 1-73) phosphorylation by recombinant JNK1, JNK2, and JNKS by were analyzed as described above. Overall, D-TAT-IB1(s) peptide decreased JNK-mediated phosphorylation of c-Jun, but at levels approximately 10-20 fold less efficiently than L-TAT-IB1(s)."}}, "note": "Entries after “also recorded” stand apart in the source; their conditions may differ. Where a SMILES comes first, the peptide text is derived from it. [ ]: non-standard residue; d: D form."}
{"smiles": "CC(C)C[C@@H](NC(=O)[C@@H](Cc1ccccc1)NC(=O)[C@H]1CCCN1C(=O)[C@@H](CCC(N)=O)NC(=O)[C@H](NC(=O)[C@H]1CCCN1C(=O)[C@@H](CCCNC(=N)N)NC(=O)[C@@H](CO)NC(=O)[C@@H](CCC(N)=O)NC(=O)[C@H](N)CC(=O)O)C(C)C)C(=O)N[C@H](CC(N)=O)C(=O)N[C@H](CC(C)C)C(=O)N[C@@H](C(=O)N[C@@H](C(=O)N1CCC[C@@H]1C(=O)N[C@H](CCCNC(=N)N)C(=O)N[C@H](CCCCN)C(=O)N1CCC[C@@H]1C(=O)N[C@H](CCCNC(=N)N)C(=O)N1CCC[C@@H]1C(=O)N1CCC[C@@H]1C(=O)N[C@H](CCCNC(=N)N)C(=O)N[C@H](CCCNC(=N)N)C(=O)N[C@H](CCCNC(=N)N)C(=O)N[C@H](CCC(N)=O)C(=O)N[C@H](CCCNC(=N)N)C(=O)N[C@H](CCCNC(=N)N)C(=O)N[C@H](CCCCN)C(=O)N[C@H](CCCCN)C(=O)N[C@H](CCCNC(=N)N)C(=O)NCC(=O)O)[C@H](C)O)[C@H](C)O", "note": "[D-TAT-IB1(s)] (H-[dD][dQ][dS][dR][dP][dV][dQ][dP][dF][dL][dN][dL][dT][dT][dP][dR][dK][dP][dR][dP][dP][dR][dR][dR][dQ][dR][dR][dK][dK][dR]G-OH)", "values": [{"measurement": "protection against permanent hearing loss (PTS, 15 days)", "setting": "[1]; 100 μM in hyaluronic acid gel on round window membrane 30 minutes before noise trauma (120 dB at 6 kHz, 30 minutes)", "value": "protects substantially against permanent hearing loss from noise trauma if applied preventively before the noise exposure"}, {"measurement": "permanent threshold shift (PTS, 15 days) versus untreated control ears", "setting": "[1]; 100 μM in hyaluronic acid gel on round window membrane 30 minutes or 4 hours after noise trauma", "value": "significantly lower; also recorded: protected against permanent hearing loss even if applied after exposure to excessive noise"}, {"measurement": "dependence of the protective effect on time of administration after noise trauma", "setting": "[1]; 30 minutes versus 4 hours after trauma", "value": "in a time-dependent fashion if administered after trauma; also recorded: stronger the earlier"}, {"measurement": "prevention of irradiation induced apoptosis", "setting": "[2]", "value": "able to prevent irradiation induced apoptosis"}, {"measurement": "degenerative changes due to NMDA exposure (LDH release above controls)", "setting": "[3]", "value": "completely inhibited"}, {"measurement": "morphological appearance, number and distribution of the neurons", "setting": "[3]", "value": "indistinguishable from the controls"}, {"measurement": "long term inhibition of IL-1β induced cell-death", "setting": "[4]", "value": "able to confer long term (15 day) protection"}, {"measurement": "efficiency in decreasing JNK-mediated phosphorylation of c-Jun, fold less efficient than L-TAT-IB1(s)", "setting": "[5]", "value": "10-20 fold"}]}
